In one series the test system is MCF7. Kind of series: cells. Conditions: Homo sapiens, MCF7, 72 h.
The subject of another series is HepG2. Kind of series: cells. The following applies: Homo sapiens, HepG2, 72 h.
Series [1] can be described thus: Cytotoxicity against human WI-38 cells assessed as inhibition of cell growth incubated for 3 days by MTT assay. It is filed as toxicity, cell-based. Background: Tetrazolium dyes change colour on reduction, which living cells bring about.
The target of series [2] is Epidermal growth factor receptor (Homo sapiens, UniProt P00533). Kind of series: Inhibition of EGFR (unknown origin).
Series [3] deals with Vascular endothelial growth factor receptor 2 (Homo sapiens, UniProt P35968). As to the kind of experiment: Inhibition of VEGFR2 (unknown origin).
A further series deals with MDA-MB-231. Kind of series: Anticancer activity against human MDA-MB-231 cells assessed as inhibition of cell growth incubated for 3 days by MTT assay. Conditions: MDA-MB-231, 72 h. It is filed as functional, cell-based.

Molecules are shown by their SMILES.

By IC50 is commonly meant the midpoint of a concentration-inhibition curve.

Sequence of Vascular endothelial growth factor receptor 2 (P35968 whole entry): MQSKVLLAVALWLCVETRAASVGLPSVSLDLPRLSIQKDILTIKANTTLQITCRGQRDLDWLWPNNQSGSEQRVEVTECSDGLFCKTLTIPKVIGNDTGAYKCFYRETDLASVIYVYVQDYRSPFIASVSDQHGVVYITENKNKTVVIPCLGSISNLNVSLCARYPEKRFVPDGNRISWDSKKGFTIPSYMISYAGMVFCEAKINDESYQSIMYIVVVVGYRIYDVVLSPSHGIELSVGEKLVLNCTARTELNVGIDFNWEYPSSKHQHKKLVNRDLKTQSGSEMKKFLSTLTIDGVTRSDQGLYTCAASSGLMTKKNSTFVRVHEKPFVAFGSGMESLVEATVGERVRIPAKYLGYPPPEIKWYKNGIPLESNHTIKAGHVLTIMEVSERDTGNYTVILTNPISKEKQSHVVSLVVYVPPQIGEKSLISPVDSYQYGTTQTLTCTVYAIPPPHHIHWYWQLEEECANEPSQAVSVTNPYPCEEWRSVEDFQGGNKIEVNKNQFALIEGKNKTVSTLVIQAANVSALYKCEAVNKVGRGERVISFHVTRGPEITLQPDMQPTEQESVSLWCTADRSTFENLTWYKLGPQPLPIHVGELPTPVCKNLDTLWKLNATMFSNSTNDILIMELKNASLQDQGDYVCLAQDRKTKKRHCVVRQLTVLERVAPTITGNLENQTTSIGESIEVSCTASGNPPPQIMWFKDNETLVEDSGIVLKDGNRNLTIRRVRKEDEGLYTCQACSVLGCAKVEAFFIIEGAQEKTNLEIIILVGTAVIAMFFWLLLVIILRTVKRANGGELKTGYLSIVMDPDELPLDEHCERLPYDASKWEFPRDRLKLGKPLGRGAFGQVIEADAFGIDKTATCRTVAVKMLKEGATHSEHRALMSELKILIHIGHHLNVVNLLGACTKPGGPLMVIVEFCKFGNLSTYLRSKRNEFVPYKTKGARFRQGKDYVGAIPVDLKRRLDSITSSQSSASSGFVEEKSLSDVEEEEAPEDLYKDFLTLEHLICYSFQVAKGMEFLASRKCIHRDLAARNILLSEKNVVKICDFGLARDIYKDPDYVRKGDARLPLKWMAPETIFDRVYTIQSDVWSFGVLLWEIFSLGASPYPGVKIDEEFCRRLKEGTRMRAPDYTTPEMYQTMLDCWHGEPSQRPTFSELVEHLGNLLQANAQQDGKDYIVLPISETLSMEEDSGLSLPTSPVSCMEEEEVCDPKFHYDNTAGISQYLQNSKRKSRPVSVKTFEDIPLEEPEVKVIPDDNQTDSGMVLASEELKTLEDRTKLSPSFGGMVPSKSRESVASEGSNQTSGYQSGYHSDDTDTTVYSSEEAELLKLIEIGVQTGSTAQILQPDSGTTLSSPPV
Sequence of Epidermal growth factor receptor (P00533 whole entry): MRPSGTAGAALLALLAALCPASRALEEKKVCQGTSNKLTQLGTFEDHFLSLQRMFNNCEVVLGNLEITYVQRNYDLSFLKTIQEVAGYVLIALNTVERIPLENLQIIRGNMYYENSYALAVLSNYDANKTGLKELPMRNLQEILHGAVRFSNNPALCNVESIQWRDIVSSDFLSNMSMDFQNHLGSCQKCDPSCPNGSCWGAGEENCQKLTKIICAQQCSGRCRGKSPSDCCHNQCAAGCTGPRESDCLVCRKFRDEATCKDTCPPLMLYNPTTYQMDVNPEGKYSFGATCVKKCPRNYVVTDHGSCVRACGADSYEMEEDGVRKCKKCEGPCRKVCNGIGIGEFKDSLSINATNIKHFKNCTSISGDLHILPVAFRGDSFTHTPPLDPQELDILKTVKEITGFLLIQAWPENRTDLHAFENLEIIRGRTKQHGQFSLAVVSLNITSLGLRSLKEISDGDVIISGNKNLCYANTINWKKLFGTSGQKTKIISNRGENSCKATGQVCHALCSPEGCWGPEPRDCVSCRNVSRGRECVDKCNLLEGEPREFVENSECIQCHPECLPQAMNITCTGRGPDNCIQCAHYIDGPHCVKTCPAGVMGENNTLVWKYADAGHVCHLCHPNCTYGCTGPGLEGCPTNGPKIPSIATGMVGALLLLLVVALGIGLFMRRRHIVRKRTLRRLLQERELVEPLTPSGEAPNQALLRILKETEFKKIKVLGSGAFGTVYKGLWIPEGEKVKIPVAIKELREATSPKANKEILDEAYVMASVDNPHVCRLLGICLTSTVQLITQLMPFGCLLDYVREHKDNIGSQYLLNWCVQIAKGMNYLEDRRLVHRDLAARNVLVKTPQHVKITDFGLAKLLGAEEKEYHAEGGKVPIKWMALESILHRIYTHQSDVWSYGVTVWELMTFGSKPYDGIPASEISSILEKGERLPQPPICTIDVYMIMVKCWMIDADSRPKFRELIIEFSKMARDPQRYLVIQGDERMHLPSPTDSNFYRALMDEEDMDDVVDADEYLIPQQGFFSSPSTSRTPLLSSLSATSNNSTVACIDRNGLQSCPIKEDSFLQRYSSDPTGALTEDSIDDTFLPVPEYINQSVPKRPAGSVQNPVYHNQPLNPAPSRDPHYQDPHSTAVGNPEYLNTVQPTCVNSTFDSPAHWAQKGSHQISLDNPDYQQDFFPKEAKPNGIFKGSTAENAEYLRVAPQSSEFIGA
Description for HepG2: Anticancer activity against human HepG2 cells assessed as inhibition of cell growth incubated for 3 days by MTT assay
Description for MCF7: Anticancer activity against human MCF7 cells assessed as inhibition of cell growth incubated for 3 days by MTT assay

Take `COc1cc(-c2nc3ccccc3s2)ccc1OCC(=O)NNC(=O)CNC(=N)NCCC[C@H](N[N+](=O)[O-])C(=O)O`: the IC50 with MCF7 was 1.96 µM; in the series on HepG2, 3.49 µM.

For the molecule `CCOC(=O)[C@H](NCC(=O)NNC(=O)COc1ccc(-c2nc3ccccc3s2)cc1OC)[C@@H](C)CC`, the IC50 was determined as 2.9 µM with MCF7 and 3.97 µM in the series with HepG2.

Turning to `CCOC(=O)[C@H](Cc1c[nH]c2ccccc12)NCC(=O)NNC(=O)COc1ccc(-c2nc3ccccc3s2)cc1OC`, the IC50 at 3 days in series [1] was determined as 92.7 µM. The IC50 in series [2] worked out at 0.114 µM; with MCF7, 0.73 µM; in the series on HepG2, 2.54 µM; in series [3], 0.178 µM; in the series on MDA-MB-231 it was 5.45 µM.

In the case of `CCOC(=O)[C@@H]1CCCN1CC(=O)NNC(=O)COc1ccc(-c2nc3ccccc3s2)cc1OC`, the IC50 at 3 days in series [1] is 75.1 µM. Also, the IC50 in series [2] was 0.109 µM; in the series on MCF7, 0.77 µM; in the series on HepG2, 2.8 µM; in series [3], 0.163 µM; in the series with MDA-MB-231 it was 7.28 µM.

`COc1cc(-c2nc3ccccc3s2)ccc1OCC(=O)NNC(=O)CN[C@@H](CS(=O)(=O)O)C(=O)O`: the IC50 was 1.87 µM in the series on MCF7 and 3.69 µM in the series with HepG2.

Regarding `COc1cc(-c2nc3ccccc3s2)ccc1OCC(=O)NNC(=O)CCl`, the IC50 stood at 0.78 µM with MCF7 and 2.89 µM in the series on HepG2.

For the molecule `COc1cc(-c2nc3ccccc3s2)ccc1OCC(=O)NNC(=O)CN[C@@H](Cc1c[nH]c2ccccc12)C(=O)O`, the IC50 at 3 days in series [1] worked out at 60.8 µM. Further, the IC50 in series [2] is 0.209 µM; in the series with MCF7, 0.83 µM; in the series with HepG2 it was 2.58 µM; in series [3], 0.162 µM; in the series on MDA-MB-231, 10.5 µM.

Consider `COc1cc(-c2nc3ccccc3s2)ccc1OCC(=O)NNC(=O)CN[C@@H](CS)C(=O)O`, for which the IC50 with MCF7 came to 1.23 µM; with HepG2, 3.12 µM.

In the case of `CCOC(=O)CN(C)CC(=O)NNC(=O)COc1ccc(-c2nc3ccccc3s2)cc1OC`, the values for the IC50 in the series with MCF7 and with HepG2 were 1.98 µM and 3.18 µM, respectively.

For the molecule `COc1cc(-c2nc3ccccc3s2)ccc1OCC(=O)NNC(=O)CN[C@@H](Cc1c[nH]cn1)C(=O)O`, the IC50 at 3 days in series [1] was determined as 49.5 µM. The concentration for half-maximal inhibition (IC50) was 0.305 µM in series [2]; 0.89 µM in the series on MCF7; 2.8 µM with HepG2; 0.171 µM in series [3]; 11 µM with MDA-MB-231.

Take `CC[C@H](C)[C@@H](NCC(=O)NNC(=O)COc1ccc(-c2nc3ccccc3s2)cc1OC)C(=O)O`: the IC50 with MCF7 worked out at 1.79 µM; in the series on HepG2 it was 3.99 µM.

Take `CCOC(=O)[C@H](CS)N(CC(=O)NNC(=O)COc1ccc(-c2nc3ccccc3s2)cc1OC)C(C)=O`: the IC50 in the series with MCF7 is 1.89 µM; in the series with HepG2, 3.01 µM.

`CC[C@H](C)[C@H](NCC(=O)NNC(=O)COc1ccc(-c2nc3ccccc3s2)cc1OC)C(=O)O`: the IC50 is 1.71 µM in the series with MCF7 and 3.54 µM in the series with HepG2.

With `CCOC(=O)[C@H](Cc1c[nH]cn1)NCC(=O)NNC(=O)COc1ccc(-c2nc3ccccc3s2)cc1OC`, the IC50 at 3 days in series [1] is 89.4 µM. For the same molecule, the IC50 in series [2] was found to be 0.157 µM; with MCF7 it was 0.74 µM; with HepG2, 2.68 µM; in series [3], 0.152 µM; with MDA-MB-231 it was 5.67 µM.

With `CCOC(=O)[C@H](CCSC)NCC(=O)NNC(=O)COc1ccc(-c2nc3ccccc3s2)cc1OC`, the values for the IC50 with MCF7 and in the series on HepG2 were 1.76 µM and 3.33 µM, respectively.

For the molecule `CCOC(=O)[C@H](CS)NCC(=O)NNC(=O)COc1ccc(-c2nc3ccccc3s2)cc1OC`, the IC50 in the series with MCF7 was determined as 2.88 µM; with HepG2, 3.76 µM.

Regarding `CCOC(=O)[C@H](CCCNC(=N)NCC(=O)NNC(=O)COc1ccc(-c2nc3ccccc3s2)cc1OC)N[N+](=O)[O-]`, the IC50 with MCF7 turned out to be 1.95 µM; with HepG2, 3.73 µM.

Regarding `CCOC(=O)[C@@H](NCC(=O)NNC(=O)COc1ccc(-c2nc3ccccc3s2)cc1OC)[C@@H](C)CC`, the 50% inhibitory concentration (IC50) came out at 1.95 µM with MCF7 and 3.46 µM in the series on HepG2.

Turning to `COc1cc(-c2nc3ccccc3s2)ccc1OCC(=O)NNC(=O)CN[C@@H](CCSC)C(=O)O`, the IC50 with MCF7 amounted to 1.95 µM; with HepG2, 3.78 µM.

For the molecule `COc1cc(-c2nc3ccccc3s2)ccc1OCC(=O)NNC(O)CN(C)CC(=O)O` (stereo not drawn), the results for the IC50 in the series on MCF7 and in the series with HepG2 were 1.96 µM and 3.03 µM, respectively.

Take `COc1cc(-c2nc3ccccc3s2)ccc1OCC(=O)NNC(=O)CN(C(C)=O)[C@@H](CS)C(=O)O`: the IC50 in the series with MCF7 was found to be 1.75 µM; with HepG2 it was 3.42 µM.

As to `COc1cccc2c1C(=O)c1c(O)c3c(c(O)c1C2=O)C[C@@](O)(C(=O)CO)C[C@@H]3O[C@H]1C[C@H](N)[C@H](O)[C@H](C)O1` [DOXORUBICIN], in series [1], the IC50 at 3 days was 79.7 µM. Besides, the half-maximal inhibitory concentration (IC50) in the series on HepG2 was 2.75 µM; in the series with MDA-MB-231 it was 7.46 µM.

In the case of `COc1cc(-c2nc3ccccc3s2)ccc1OCC(=O)NNC(=O)CN1CCC[C@H]1C(=O)O`, in series [1], the concentration for half-maximal inhibition (IC50) at 3 days came to 68.6 µM. In addition, the IC50 was 0.342 µM in series [2]; 0.84 µM with MCF7; 2.65 µM in the series on HepG2; 0.188 µM in series [3]; 8.88 µM in the series on MDA-MB-231.

As for `CCOC(=O)[C@H](CS(=O)(=O)O)NCC(=O)NNC(=O)COc1ccc(-c2nc3ccccc3s2)cc1OC`, the IC50 with MCF7 came out at 1.99 µM; in the series with HepG2, 3.36 µM.

For the origin of these results see ChEMBL document CHEMBL5131433, “Novel benzothiazole-based dual VEGFR-2/EGFR inhibitors targeting breast and liver cancers: Synthesis, cytotoxic activity, QSAR and molecular docking studies” (Bioorg Med Chem Lett, 2022).
